Assay results taken from PMC8344022, “Small-molecule inhibitor of AF9/ENL-DOT1L/AF4/AFF4 interactions suppresses malignant gene expression and tumor growth” (Theranostics, 2021).

Experiments:
[1] = tested on: MV4;11 cells; experiment: Antiproliferation assay (XTT); type: cell-based; conditions: 14-day incubation, read-out: Cytotoxicity EC50
Description: (§1) Antiproliferation assay. Proliferation inhibition assays for suspension blood cancer cells were performed using an XTT assay kit (Roche). Proliferation inhibition assays for solid tumor cell lines MCF-7, MDA-MB-231, Panc1, Panc28 were performed using an MTT assay (Sigma). The antiproliferation EC50 values were determined using Prism 5 and the reported results were the mean values of at least three independent experiments. The incubation time for compound 1 was 7 days and that for EPZ4777 was 14 days.

[2] = tested on: Molm-13 cells; experiment: Antiproliferation assay (XTT); type: cell-based; conditions: 14-day incubation, read-out: Cytotoxicity EC50
Description: as §1

[3] = tested on: RPMI-8226 cells; experiment: Antiproliferation assay (XTT); type: cell-based; conditions: 14-day incubation, read-out: Cytotoxicity EC50
Description: as §1

[4] = tested on: U266 cells; experiment: Antiproliferation assay (XTT); type: cell-based; conditions: 14-day incubation, read-out: Cytotoxicity EC50
Description: as §1

[5] = tested on: MCF-7 cells; experiment: Antiproliferation assay (MTT); type: cell-based; conditions: 14-day incubation, read-out: Cytotoxicity EC50
Description: as §1

[6] = tested on: MDA-MB-231 cells; experiment: Antiproliferation assay (MTT); type: cell-based; conditions: 14-day incubation, read-out: Cytotoxicity EC50
Description: as §1

[7] = tested on: Panc-1 cells; experiment: Antiproliferation assay (MTT); type: cell-based; conditions: 14-day incubation, read-out: Cytotoxicity EC50
Description: as §1

[8] = tested on: Panc-28 cells; experiment: Antiproliferation assay (MTT); type: cell-based; conditions: 14-day incubation, read-out: Cytotoxicity EC50
Description: as §1

[9] = tested on: nuclear protein levels in Molm-13 cells; experiment: Western blot of nuclear proteins; type: cell-based; conditions: 3 days
Description: Next, we investigated how compound 1 affects these transcription cofactors in the nucleus, where they regulate gene expression. […] DOT1L inhibitor EPZ4777 [25] reduced the methylation levels of H3K79, but not other proteins (Figure 3B). […] In this regard, despite lack of activity against DOT1L, compound 1 can mimic EPZ4777 to reduce H3K79 methylation.
Western blot. 3x10^6 cells/well were treated with increasing concentrations of a compound for 3 days and nuclear proteins extracted with the EpiQuik Nuclear Extraction Kit (Epigentek) according to the manufacturer's protocol. Equal amounts of proteins were separated on SDS-PAGE and transferred to PVDF membranes. The blots were probed with primary antibodies, followed by anti-rabbit or anti-mouse IgG (Thermo Scientific) secondary antibodies. The primary antibodies used in this research were MBP Mouse mAb (#2396, Cell signaling), DOT1L Rabbit mAb (#77087, Cell signaling), MLL-N Rabbit mAb (#14689, Cell signaling), ENL Rabbit mAb (#14893, Cell signaling), Di-Methyl-Histone H3K79 Rabbit mAb (#5427, Cell signaling), Mono-Methyl-Histone H3K79 Rabbit mAb (#9398, Cell signaling), Histone H3 Rabbit mAb (#4499, Cell signaling), AF4 Rabbit pAb (#NBP1-28705, Novusbio) and AFF4 Rabbit pAb (#ab103586, Abcam).

[10] = tested on: HoxA9, Meis1 and Myc expression in MV4;11 cells; experiment: qPCR of MLL target genes; type: cell-based; conditions: 4 days
Description: (§2) Next, compound 1 was tested for its ability to change expression of characteristic MLL-r leukemia genes HoxA9, Meis1 and Myc. Myc is also overexpressed in a broad range of AML and other cancers. […] (Figure S5), presumably because SEC is not recruited there.
(§3) RNA extraction and Quantitative real-time PCR (qPCR). 10^5 cells/ml were incubated with a compound for 4 days and the RNA was extracted using RNeasy mini kit (#74104, Qiagen). 100-1000 ng of total RNA was reverse transcribed using iScript™ Reverse Transcription Supermix (Bio-Rad) using the manufacturer's protocol. Quantitative real-time PCR was carried out using Fast SYBR Green Master Mix (Applied Biosystems) according to the manufacturer's instructions. Measurements were performed in triplicate, using GAPDH as the reference gene. Real-time PCR was performed using Biosystems Step One Plus detection system. The following sequences of primers are used: […]

[11] = tested on: HoxA9, Meis1 and Myc expression in Molm-13 cells; experiment: qPCR of MLL target genes; type: cell-based; conditions: 4 days
Description: as §2, §3

[12] = tested on: H3K79me2 at gene promoters in Molm-13 cells; experiment: Chromatin immunoprecipitation (ChIP)-qPCR; type: cell-based; conditions: 2 μM
Description: as §2
Chromatin immunoprecipitation. […] Cells were lysed with nuclear lysis buffer and sonicated to ~100-1000 bp fragments, which was incubated at 4 °C overnight with the H3K79me2 antibody (#5427, Cell signaling) and IgG (C15410206, Diagenode). Protein A/G Magnetic Beads (10 µL, Novus Biologicals) were added and incubated for 2 h. The beads were washed 3x with RIPA buffer and 2x with TE buffer. DNA on the beads was eluted for 2 hours at 68 °C in 100 μL of an elution buffer (20 mM Tris pH 7.5, 5 mM EDTA, 50 mM NaCl, 1% SDS, 50 μg/ml proteinase K) (2x), and purified using a ChIP DNA Clean & Concentrator kit (Novus Biologicals). qPCR was done using the method described above.

[13] = tested on: THP-1 cells; design: method as in earlier work; conditions: read-out: Cytotoxicity EC50; cited from earlier work
[14] = tested on: HL60 cells; design: method as in earlier work; conditions: read-out: Cytotoxicity EC50; cited from earlier work
[15] = tested on: Kasumi-1 cells; design: method as in earlier work; conditions: read-out: Cytotoxicity EC50; cited from earlier work
[16] = tested on: Jurkat cells; design: method as in earlier work; conditions: read-out: Cytotoxicity EC50; cited from earlier work

## CC(C)N(CCCNC(=O)Nc1ccc(C(C)(C)C)cc1)C[C@H]1O[C@@H](n2ccc3c(N)ncnc32)[C@H](O)[C@@H]1O [EPZ4777, reference compound]
[1]
  EC50: 1100 ± 300 nM
[2]
  EC50: 1200 ± 200 nM
[3]
  EC50: > 50 µM
[4]
  EC50: > 50 µM
[5]
  EC50: > 50 µM
[6]
  EC50: > 50 µM
[7]
  EC50: > 50 µM
[8]
  EC50: > 50 µM
[9]
  Nuclear levels of DOT1L, H3K79me1 and me2, ENL and AFF4: only reduced those of H3K79me1 and me2, but not other proteins
[10]
  Expression of MLL target genes HoxA9, Meis1 and Myc: behaved similarly
[11]
  Expression of MLL target genes HoxA9, Meis1 and Myc: behaved similarly
[12]
  H3K79me2 in the gene promoters of HoxA9 and Myc: decreased levels of H3K79me2
[13]
  EC50: 3.4 µM
[14]
  EC50: > 50 µM
[15]
  EC50: 33 µM
[16]
  EC50: > 50 µM
